Laboratory results published in ChEMBL document CHEMBL1147945, “R-isomers of Arg-Gly-Asp (RGD) mimics as potent alphavbeta3 inhibitors” (Bioorg Med Chem, 2007).

Assays:
Integrin alpha-V/beta-3 = Integrin alpha-V/beta-3 (Homo sapiens, UniProt P05106+P06756); assay: Inhibition of alphaVbeta3 integrin receptor expressed in human 293 cells; format: cell-based, HEK293
Integrin alpha-V/beta-6 [1] = molecular target: T1, Integrin alpha-V/beta-6 (Homo sapiens, UniProt P06756+P18564); assay: Inhibition of alpha-V-beta-6 integrin receptor in human HT29 cells; format: cell-based, HT-29
T1 sequence (P06756 31-889 limits assumed): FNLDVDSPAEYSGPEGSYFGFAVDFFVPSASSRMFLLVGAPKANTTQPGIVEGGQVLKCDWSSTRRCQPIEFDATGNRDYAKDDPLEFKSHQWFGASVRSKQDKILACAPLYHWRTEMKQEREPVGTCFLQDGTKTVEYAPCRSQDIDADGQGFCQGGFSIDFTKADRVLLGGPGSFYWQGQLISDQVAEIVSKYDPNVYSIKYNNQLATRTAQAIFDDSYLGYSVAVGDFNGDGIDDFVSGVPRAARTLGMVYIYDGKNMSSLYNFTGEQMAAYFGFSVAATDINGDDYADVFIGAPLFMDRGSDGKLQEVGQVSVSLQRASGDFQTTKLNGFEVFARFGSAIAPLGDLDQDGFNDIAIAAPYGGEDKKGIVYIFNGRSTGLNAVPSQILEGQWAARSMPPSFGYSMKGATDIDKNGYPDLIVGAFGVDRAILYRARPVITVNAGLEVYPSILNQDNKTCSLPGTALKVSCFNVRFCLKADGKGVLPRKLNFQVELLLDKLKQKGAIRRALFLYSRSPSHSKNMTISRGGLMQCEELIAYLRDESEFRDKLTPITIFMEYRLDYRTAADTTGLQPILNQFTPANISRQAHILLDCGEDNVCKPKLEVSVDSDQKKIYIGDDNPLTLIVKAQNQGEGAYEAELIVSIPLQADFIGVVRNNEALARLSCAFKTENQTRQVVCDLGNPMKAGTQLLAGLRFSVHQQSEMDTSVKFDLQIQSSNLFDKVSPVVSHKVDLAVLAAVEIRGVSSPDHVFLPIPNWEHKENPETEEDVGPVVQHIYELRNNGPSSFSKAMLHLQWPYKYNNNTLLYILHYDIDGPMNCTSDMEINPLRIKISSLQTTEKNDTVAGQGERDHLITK
T1 sequence (P06756 891-1048 limits assumed): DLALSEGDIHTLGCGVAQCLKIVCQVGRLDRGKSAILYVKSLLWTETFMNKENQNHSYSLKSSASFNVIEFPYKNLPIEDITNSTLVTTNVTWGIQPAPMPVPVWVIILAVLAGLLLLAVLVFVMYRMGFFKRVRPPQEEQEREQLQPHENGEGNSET
T1 sequence (P18564 22-788 limits assumed): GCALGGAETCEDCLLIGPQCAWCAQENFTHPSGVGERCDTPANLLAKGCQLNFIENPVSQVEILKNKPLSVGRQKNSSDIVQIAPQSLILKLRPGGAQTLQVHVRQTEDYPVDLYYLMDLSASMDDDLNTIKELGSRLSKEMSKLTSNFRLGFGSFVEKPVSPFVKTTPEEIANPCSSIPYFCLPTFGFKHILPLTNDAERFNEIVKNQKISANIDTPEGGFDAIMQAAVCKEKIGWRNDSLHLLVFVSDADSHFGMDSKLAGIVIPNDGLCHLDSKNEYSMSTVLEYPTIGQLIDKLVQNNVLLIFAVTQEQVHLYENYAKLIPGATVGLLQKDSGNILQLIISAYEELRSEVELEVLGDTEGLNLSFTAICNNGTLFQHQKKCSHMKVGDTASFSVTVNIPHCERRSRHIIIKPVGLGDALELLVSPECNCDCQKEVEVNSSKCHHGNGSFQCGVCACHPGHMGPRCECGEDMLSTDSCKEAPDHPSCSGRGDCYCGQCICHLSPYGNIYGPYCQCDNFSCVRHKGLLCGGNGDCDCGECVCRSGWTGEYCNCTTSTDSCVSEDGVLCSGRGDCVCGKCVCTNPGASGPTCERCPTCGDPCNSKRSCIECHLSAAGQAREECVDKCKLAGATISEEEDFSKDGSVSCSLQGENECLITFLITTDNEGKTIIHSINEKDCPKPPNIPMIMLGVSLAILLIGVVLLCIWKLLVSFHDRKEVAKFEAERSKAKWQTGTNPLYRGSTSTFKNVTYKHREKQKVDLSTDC

Integrin alpha-V/beta-6 [2] = molecular target: T1, Integrin alpha-V/beta-6; assay: Inhibition of alpha-V-beta-6 integrin receptor in human 293 cells; format: cell-based, HEK293

Sequence of Integrin alpha-V/beta-3 (P05106 27-788 limits assumed): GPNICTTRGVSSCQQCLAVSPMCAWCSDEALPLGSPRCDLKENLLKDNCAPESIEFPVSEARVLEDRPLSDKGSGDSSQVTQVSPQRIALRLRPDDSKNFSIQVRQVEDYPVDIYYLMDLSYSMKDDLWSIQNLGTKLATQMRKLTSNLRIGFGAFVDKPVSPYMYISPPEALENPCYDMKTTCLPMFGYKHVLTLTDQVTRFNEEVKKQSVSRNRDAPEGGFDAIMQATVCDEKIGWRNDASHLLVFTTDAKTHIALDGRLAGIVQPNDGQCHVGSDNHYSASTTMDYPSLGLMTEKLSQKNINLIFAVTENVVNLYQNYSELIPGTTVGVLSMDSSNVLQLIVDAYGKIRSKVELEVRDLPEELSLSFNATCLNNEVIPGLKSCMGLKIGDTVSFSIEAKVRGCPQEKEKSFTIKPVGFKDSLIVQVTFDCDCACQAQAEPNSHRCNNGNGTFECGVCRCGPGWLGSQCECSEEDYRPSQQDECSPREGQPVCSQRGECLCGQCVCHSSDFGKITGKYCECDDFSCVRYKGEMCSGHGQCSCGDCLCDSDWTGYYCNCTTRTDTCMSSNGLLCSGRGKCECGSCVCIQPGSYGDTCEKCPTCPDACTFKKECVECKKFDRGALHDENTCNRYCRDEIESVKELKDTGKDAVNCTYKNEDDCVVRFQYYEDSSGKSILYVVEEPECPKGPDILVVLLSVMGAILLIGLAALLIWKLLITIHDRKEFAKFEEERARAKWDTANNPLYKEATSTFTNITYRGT
Sequence of Integrin alpha-V/beta-3 (P06756 31-889 limits assumed): as the sequence (P06756 31-889 limits assumed) above
Sequence of Integrin alpha-V/beta-3 (P06756 891-1048 limits assumed): as the sequence (P06756 891-1048 limits assumed) above

IC50 (Integrin alpha-V/beta-3) [nM]	IC50 (Integrin alpha-V/beta-6 [1]) [nM]	IC50 (Integrin alpha-V/beta-6 [2]) [nM]	SMILES
5	6540	–	O=C(O)C[C@@H](NC(=O)CNC(=O)c1cccc(NC2=NCCCN2)c1)c1cc(Cl)cc(Br)c1O
3	631	–	O=C(O)C[C@@H](NC(=O)CNC(=O)c1cc(O)cc(NC2=NCC(O)CN2)c1)c1cc(Cl)cc(I)c1O (stereo not given in full)
5	–	–	O=C(O)C[C@H](NC(=O)CNC(=O)c1cc(O)cc(N=C2NCC(F)(F)CN2)c1)c1cc(Cl)cc(Br)c1O
3	3000	–	O=C(O)C[C@@H](NC(=O)CNC(=O)c1cc(O)cc(NC2=NCCCN2)c1)c1cc(Cl)cc(Cl)c1O
56	49	–	Cc1cc(C)cc([C@@H](CC(=O)O)NC(=O)CNC(=O)c2cc(O)cc(NC3=NCC(F)CN3)c2)c1 (stereo not given in full)
10	65	–	Cc1cc(C)c(O)c([C@@H](CC(=O)O)NC(=O)CNC(=O)c2cc(N)cc(NC3=NCC(F)CN3)c2)c1 (stereo not given in full)
1	11500	–	O=C(O)C[C@@H](NC(=O)CNC(=O)c1cccc(NC2=NCC(O)CN2)c1)c1cc(Cl)cc(I)c1O (stereo not given in full)
5	20	–	O=C(O)C[C@@H](NC(=O)CNC(=O)c1cc(O)cc(NC2=NCC(F)CN2)c1)c1cc(Br)cc(Br)c1 (stereo not given in full)
1	16	–	O=C(O)C[C@@H](NC(=O)CNC(=O)c1cccc(N=C2NCC(F)CN2)c1)c1cc(Cl)cc(Cl)c1O (stereo not given in full)
3	3440	–	Nc1cc(NC2=NCC(F)CN2)cc(C(=O)NCC(=O)N[C@H](CC(=O)O)c2cc(Cl)cc(Br)c2O)c1 (stereo not given in full)
5	7260	–	O=C(O)C[C@@H](NC(=O)CNC(=O)c1cc(O)cc(NC2=NCC(F)(F)CN2)c1)c1cc(Cl)cc(Br)c1O
0.2	–	–	Cc1cc(Cl)cc([C@H](CC(=O)O)NC(=O)CNC(=O)c2cc(O)cc(NC3=NCC(O)CN3)c2)c1O (stereo not given in full)
4	24	–	O=C(O)C[C@@H](NC(=O)CNC(=O)c1cccc(NC2=NCCCN2)c1)c1cc(Cl)cc(Cl)c1O
20	204	–	O=C(O)C[C@@H](NC(=O)CNC(=O)c1cc(O)cc(N=C2NCCCN2)c1)c1cc(Br)cc(Br)c1O
0.7	1830	–	O=C(O)C[C@@H](NC(=O)CNC(=O)c1cncc(NC2=NCC(F)CN2)c1)c1cc(Cl)cc(Br)c1O (stereo not given in full)
0.6	–	–	O=C(O)C[C@H](NC(=O)CNC(=O)c1cccc(NC2=NCC(O)CN2)c1)c1cc(Cl)cc(Br)c1O (stereo not given in full)

IC50 (Integrin alpha-V/beta-3) [nM]	IC50 (Integrin alpha-V/beta-6 [1]) [nM]	IC50 (Integrin alpha-V/beta-6 [2]) [nM]	SMILES
2	25	–	O=C(O)C[C@@H](NC(=O)CNC(=O)c1cccc(NC2=NCC(F)CN2)c1)c1cc(Br)cc(Cl)c1O (stereo not given in full)
10	25	–	O=C(O)C[C@@H](NC(=O)CNC(=O)c1cccc(NC2=NCC(O)CN2)c1)c1cc(Br)cc(Br)c1O (stereo not given in full)
7	2790	–	Nc1cc(NC2=NCC(O)CN2)cc(C(=O)NCC(=O)N[C@H](CC(=O)O)c2cc(Br)cc(Br)c2O)c1 (stereo not given in full)
2.6	–	–	O=C(O)C[C@H](NC(=O)CNC(=O)c1cc(O)cc(NC2=NCC(O)CN2)c1)c1cc(Cl)cc(Br)c1O (stereo not given in full)
8	48	–	O=C(O)C[C@@H](NC(=O)CNC(=O)c1cccc(NC2=NCC(O)CN2)c1)c1cc(Br)cc(Cl)c1O (stereo not given in full)
0.4	–	–	O=C(O)C[C@H](NC(=O)CNC(=O)c1cncc(N=C2NCC(O)CN2)c1)c1cc(Cl)cc(Br)c1O (stereo not given in full)
0.9	–	–	O=C(O)C[C@H](NC(=O)CNC(=O)c1cc(O)cc(NC2=NCCCN2)c1)c1cc(Cl)cc(Cl)c1O
3	–	164	O=C(O)C[C@@H](NC(=O)CNC(=O)c1cc(O)cc(NC2=NCC(F)CN2)c1)c1cc(Cl)cc(I)c1O (stereo not given in full)
1	14	–	O=C(O)C[C@@H](NC(=O)CNC(=O)c1cncc(NC2=NCC(F)CN2)c1)c1cc(Cl)cc(Cl)c1O (stereo not given in full)
3	–	52	O=C(O)C[C@@H](NC(=O)CNC(=O)c1cc(O)cc(NC2=NCC(O)CN2)c1)c1cc(Cl)cc(Br)c1O (stereo not given in full)
1	–	–	Cc1cc(C)c(O)c([C@H](CC(=O)O)NC(=O)CNC(=O)c2cc(O)cc(NC3=NCC(O)CN3)c2)c1 (stereo not given in full)
0.7	–	20	O=C(O)C[C@@H](NC(=O)CNC(=O)c1cccc(NC2=NCC(O)CN2)c1)c1cc(Cl)cc(Cl)c1O (stereo not given in full)
1.6	–	–	O=C(O)C[C@H](NC(=O)CNC(=O)c1cccc(N=C2NCC(O)CN2)c1)c1cc(Cl)cc(I)c1O (stereo not given in full)
4	3210	–	O=C(O)C[C@@H](NC(=O)CNC(=O)c1cccc(NC2=NCCCN2)c1)c1cc(Br)cc(Br)c1O
7	588	–	O=C(O)C[C@@H](NC(=O)CNC(=O)c1cc(O)cc(NC2=NCC(O)CN2)c1)c1cc(Br)cc(Cl)c1O (stereo not given in full)
6.4	–	–	O=C(O)C[C@H](NC(=O)CNC(=O)c1cc(O)cc(NC2=NCC(O)CN2)c1)c1cc(Cl)cc(I)c1O (stereo not given in full)
